Read-outs that look alike come from different tables or passages of the source. One block for each molecule: values may come before it.
Key:
pig liver esterase = experiment: Incubation with pig liver esterase; assay type: in vitro ADME; conditions: Esterase 14 U, 60 min, 10 μM
Procedure: Pig liver esterase (14 U) suspended in incubation buffer (0.1 M potassium phosphate, pH 7.4) was incubated for 60 min at 37° C. with 10 μM Compound 1 from a stock solution in DMSO (final DMSO concentration was 0.1%); reaction was initiated with the addition of test article. Incubations with no protein served as controls. Reactions were terminated by the addition of 0.1 mL of stop solution (acetonitrile). The samples were vortex-mixed for 30 sec and then centrifuged at 10,000×g for 10 min. The supernatant was dried using a Labconco CentriVap concentrator and the dry residue reconstituted in water, transferred to an HPLC glass vial and analyzed by HPLC-UV method 2 (described above).
Metabolic stability of the proposed metabolites was conducted by incubating the chemically synthesized standards Compound 2, Compound 4 and Compound 3 as described above for Compound 1. When possible, formation of Compound 5 was verified by incubating samples with alkaline phosphatase (10 U) for 60 min at 37° C.

[1] = Metabolite profile in rat liver; assay type: in vivo, male Sprague-Dawley rats; conditions: for Percent of Dose, Liver 24 h: after [14C]Compound 1; for concentration at 2 h / concentration at 6 h / concentration at 24 h: male, Sprague-Dawley, rat, liver, read-out: liver concentration as μg equivalents/g; for % of the total radioactivity in liver: rat liver
Procedure: Homogenates were prepared on dry ice in 70% methanol-30% water containing 20 mM EDTA and 20 mM EGTA (about 1× (w/v) weight of the liver) and were stored frozen. Pooled liver samples were prepared for all groups by combining a fixed percentage of the total weight of each individual animal sample homogenate for each group. Each pooled liver homogenate (3.77-5.02 g) was placed in a 50-mL polypropylene centrifuge tube and 16.0 mL of methanol:water (70:30) was added. The sample was vortexed for one minute, and then centrifuged at 11200×g for 20 minutes. The supernatant was transferred to a tube and total volume was measured. The extraction procedure was repeated three additional times. Radioactivity of each supernatant was determined by LSC of duplicate aliquots (100 μL each) for extraction recovery. Subsamples of all four extracts from each sample were taken for proportionate pooling. For Group 1, the subsamples were pooled before concentration and, for Group 2, each subsample was concentrated separately and then pooled due to the larger volumes involved. Each extract was completely dried or reduced to approximately 100 μL. Reconstitution was accomplished with methanol (20 μL) and sufficient volume of the aqueous mobile phase of HPLC method 2 such that the total volume of each reconstituted sample was 500 μL. Duplicate aliquots of the reconstituted samples were analyzed by LSC. Each sample was analyzed by HPLC method 2.
(§1) Percent of the administered dose (% AD) for parent drug and each metabolite at each collection period=(% of the total radioactivity in the sample attributed to the metabolite)*(total radioactivity expressed as % of the administered dose, recovered during the corresponding collection period).
Microgram equivalents/g for parent drug or metabolite at each collection period (% radioactivity for each metabolite)*(total μg equivalents/g during the corresponding collection period).
Liver homogenates were pooled for each time point for both dose groups by proportional mixing according to the weight of the samples from individual animals. The pooled samples were extracted and prepared for HPLC analysis as described above. The abundance of metabolites was determined as a % of the administered dose and as μg equivalent/g. The data are presented in Table 54, Table 55, Table 56 and Table 57, respectively. Metabolites R^1, R^8 and R^9 were characterized based on retention time.

[2] = Metabolite profile in rat urine; assay type: in vivo, male Sprague-Dawley rats; conditions: for Percent of Dose, Urine 0-24 h: after [14C]Compound 1; for % AD, estimated: from single animal HPLC distribution and mean % AD
Procedure: Pooled urine samples were prepared for Groups 1C and 2C by mixing a fixed percent of the total volume for all four animals from the selected time points. For Group 1C, samples of the 1-, 2-, 6-, and 24-h collection intervals were pooled. For Group 2C, a pool of samples from all four animals was prepared for the 24 h collection intervals only. For 1-, 2-, and 6 h collection intervals, a urine sample of a single animal of Group 2A or 2B was used for analysis. All samples were brought to room temperature and vortexed briefly. The samples were diluted as necessary (2- to 20-fold) with appropriate aqueous mobile phase for the selected HPLC method. The pooled and diluted samples from the 24 h collection interval were centrifuged at 2040×g for 10 minutes. All other samples were analyzed without centrifugation. HPLC method 1 was used for HPLC profiling. Selected samples were analyzed by HPLC method 2 for comparison with the metabolite profile generated by microsomal and hepatocyte incubations (Examples 14 and 15) and with the metabolite profile of liver extracts.
as §1
HPLC analyses of pooled urine samples of all time points were conducted for Group 1C. Metabolites R1, R2, R3, R4, R5, R6, R7 and R8 were characterized based on retention time.
For the PO dose group, a pooled urine sample from the 24-h collection time was analyzed. For 1-, 2-, and 6-h collection times, the majority of the samples had been used for radioanalysis. The remaining samples were insufficient for proportional pooling. Therefore, single animal samples of […] groups were used for HPLC profiling. Metabolites R^1, R^2, R^3, R^4, R^5, R^6, R^7 and R^8 were characterized based on retention time.
Table 50 contains data from single animal samples and pooled samples. To estimate overall distribution of urinary metabolites, it was assumed that the profile from a single animal is reflective of the overall average metabolite profile. Therefore, HPLC distribution data from single animals was used to calculate the percentage of administered dose excreted as various metabolites during the 1-, 2-, and 6-h collection intervals. Metabolites R1, R2, R3, R4, R5, R6, R7 and R8 were characterized based on retention time.

[3] = group 1 (IV dose) pooled liver, 2 h
[4] = group 1 (IV dose) pooled liver, 6 h
[5] = group 1 (IV dose) pooled liver, 24 h
[6] = group 2 (PO dose) pooled liver, 2 h
[7] = group 2 (PO dose) pooled liver, 6 h
[8] = group 2 (PO dose) pooled liver, 24 h
[9] = PO dose urine, 1 h collection, single animal (#15, Group 2A)
[10] = PO dose urine, 2 h collection, single animal (#20, Group 2B)
[11] = PO dose urine, 6 h collection, single animal (#20, Group 2B)
[12] = estimated profile table, group 2C (PO dose) urine, 24 h
[13] = group 1C (IV dose) pooled urine, 1 h collection
[14] = group 1C (IV dose) pooled urine, 2 h collection
[15] = group 1C (IV dose) pooled urine, 6 h collection
[16] = group 1C (IV dose) pooled urine, 24 h collection
[17] = group 2C (PO dose) pooled urine, 24 h collection

Residual compound following incubation with pig liver esterase (pig liver esterase): 97%
Structure (SMILES): CC(C)(CO)C(=O)SCCOP(N)(=O)OC[C@H]1O[C@@H](n2cnc3c(=O)[nH]c(N)nc32)[C@](C)(O)[C@@H]1O (mixture of isomers) [Compound 3, {9-[(2R)2-C-methyl-β-D-ribo-furanosyl]-guanin}-5′-yl-O-(hydroxy-tert-butyl-S-acyl-2-thioethyl) phosphoramidate]

Percent of Dose, Liver 24 h ([1]; IV): 0.42% of Dose
Percent of Dose, Liver 24 h ([1]; Oral): 0.09% of Dose
% AD [1, 3]: 2.14 % AD
% HPLC (percent of HPLC peak area in the sample extract) [1, 3]: 13.8%
% HPLC (percent of HPLC peak area in the sample extract) ([1]; group 1 (IV dose) pooled liver, 2 h (Table 56)): 13.8%
% AD [1, 4]: 1.48 % AD
% HPLC (percent of HPLC peak area in the sample extract) [1, 4]: 14.6%
% HPLC (percent of HPLC peak area in the sample extract) ([1]; group 1 (IV dose) pooled liver, 6 h (Table 56)): 14.6%
% AD [1, 5]: 0.42 % AD
% HPLC (percent of HPLC peak area in the sample extract) [1, 5]: 23.9%
% HPLC (percent of HPLC peak area in the sample extract) ([1]; group 1 (IV dose) pooled liver, 24 h (Table 56)): 23.9%
% AD [1, 6]: 0.15 % AD
% HPLC (percent of HPLC peak area in the sample extract) [1, 6]: 77.5%
% HPLC (percent of HPLC peak area in the sample extract) ([1]; group 2 (PO dose) pooled liver, 2 h (Table 57)): 77.5%
% AD [1, 7]: 0.32 % AD
% HPLC (percent of HPLC peak area in the sample extract) [1, 7]: 85.0%
% HPLC (percent of HPLC peak area in the sample extract) ([1]; group 2 (PO dose) pooled liver, 6 h (Table 57)): 85.0%
% AD [1, 8]: 0.09 % AD
% HPLC (percent of HPLC peak area in the sample extract) [1, 8]: 53.9%
% HPLC (percent of HPLC peak area in the sample extract) ([1]; group 2 (PO dose) pooled liver, 24 h (Table 57)): 53.9%
concentration at 2 h ([1]; iv, 50 mg/kg, group 1 (IV dose) pooled liver, 2 h): 28400 ng/g
concentration at 6 h ([1]; iv, 50 mg/kg, group 1 (IV dose) pooled liver, 6 h): 20000 ng/g
concentration at 24 h ([1]; iv, 50 mg/kg, group 1 (IV dose) pooled liver, 24 h): 5560 ng/g
concentration at 2 h ([1]; po, 100 mg/kg, group 2 (PO dose) pooled liver, 2 h): 3940 ng/g
concentration at 6 h ([1]; po, 100 mg/kg, group 2 (PO dose) pooled liver, 6 h): 8760 ng/g
concentration at 24 h ([1]; po, 100 mg/kg, group 2 (PO dose) pooled liver, 24 h): 2200 ng/g
% of the total radioactivity in liver ([1]; IV dose, 2, 6 and 24 h): 14-24%
% of the total radioactivity in liver ([1]; PO dose, 2, 6 and 24 h): 54-85%
Total excretion (% AD), urine ([2]; IV (1C)): 18.0 % AD
Percent of Dose, Urine 0-24 h ([2]; IV): 18.0% of Dose
Percent of Dose, Urine 0-24 h ([2]; Oral): 2.56% of Dose
Total excretion (% AD), urine ([2]; PO (2C), urine data estimated): 2.56 % AD
% AD (percent of administered dose) [2, 9]: 0.004 % AD
% HPLC (percent of HPLC peak area in the sample extract) [2, 9]: 5.33%
% AD (percent of administered dose) [2, 10]: 0.06 % AD
% HPLC (percent of HPLC peak area in the sample extract) [2, 10]: 56.2%
% AD (percent of administered dose) [2, 11]: 0.24 % AD
% HPLC (percent of HPLC peak area in the sample extract) [2, 11]: 86.18%
% AD [2, 12]: 2.14 % AD
% HPLC (percent of HPLC peak area in the sample extract) [2, 12]: 92.1%
% of total urinary excretion, estimated ([2]; estimated profile, group 2C (PO dose) urine): 90.4%
% AD, estimated ([2]; estimated profile, group 2C (PO dose) urine, 1 h): 0.001 % AD
% HPLC (percent of HPLC peak area in the sample extract) ([2]; estimated profile, group 2C (PO dose) urine, 1 h, single animal % HPLC distribution): 5.33%
% AD, estimated ([2]; estimated profile, group 2C (PO dose) urine, 2 h): 0.02 % AD
% HPLC (percent of HPLC peak area in the sample extract) ([2]; estimated profile, group 2C (PO dose) urine, 2 h, single animal % HPLC distribution): 56.2%
% AD, estimated ([2]; estimated profile, group 2C (PO dose) urine, 6 h): 0.40 % AD
% HPLC (percent of HPLC peak area in the sample extract) ([2]; estimated profile, group 2C (PO dose) urine, 6 h, single animal % HPLC distribution): 86.18%
Total % AD, estimated ([2]; estimated profile, group 2C (PO dose) urine, total of all collections): 2.56 % AD
% AD (percent of administered dose) [2, 13]: 0.48 % AD
% HPLC (percent of HPLC peak area in the sample extract) [2, 13]: 2.12%
% AD (percent of administered dose) [2, 14]: 1.79 % AD
% HPLC (percent of HPLC peak area in the sample extract) [2, 14]: 35.1%
% AD (percent of administered dose) [2, 15]: 1.35 % AD
% HPLC (percent of HPLC peak area in the sample extract) [2, 15]: 57.7%
% AD (percent of administered dose) [2, 16]: 14.4 % AD
% HPLC (percent of HPLC peak area in the sample extract) [2, 16]: 86.7%
% of total urinary excretion ([2]; group 1C (IV dose) urine): 38.4%
Total % AD ([2]; group 1C (IV dose) urine, total of all collections): 18.0 % AD
% AD (percent of administered dose) [2, 17]: 2.14 % AD
% HPLC (percent of HPLC peak area in the sample extract) [2, 17]: 92.1%
% of the total urinary excretion ([2]; rat urine, IV dose 50 mg/kg): 38.4%
urinary component, % of the administered dose (% AD) ([2]; rat urine, IV dose 50 mg/kg, 0-24 h, 50 mg/kg): 18 % AD
% of the total urinary excretion ([2]; rat urine, PO dose 100 mg/kg): 90.4%
urinary component, estimated % of the administered dose (% AD) ([2]; rat urine, PO dose 100 mg/kg, 0-24 h): 2.6 % AD
Structure (SMILES): C[C@@]1(O)[C@H](O)[C@@H](CO)O[C@H]1n1cnc2c(=O)[nH]c(N)nc21 [2′-C-methyl guanosine, 9-(2-C-methyl-β-D-ribofuranosyl)guanine, reference compound]

Reference: patent publication US20100003217A1, “Compounds and Pharmaceutical Compositions for the Treatment of Viral Infections” (priority 2008, published 2010)
